Measured values published in US12122774B2, “Compounds as MYT1 inhibitors” (WIGEN BIOMEDICINE TECHNOLOGY (SHANGHAI) CO., LTD., priority 2022, dated 2024).
Converted amounts (≈) assume the structure as drawn.

Key:
MIA PaCa-2 cells [1] = experiment: In vitro anti-proliferative activity against MIA PaCa-2 cells (compound alone); type: cell-based; conditions: intracellular ATP content
Method: (§1) MIA PaCa-2 cells were seeded on a 384-well plate at 3000 cells/well. After overnight adherence culture, DMSO or the compounds serially diluted 1:5 from 10 µM were added. The viability was assessed 72 h after dosing by measuring the intracellular ATP content. The inhibition percentage of viable cells by the compounds was calculated by comparing with the DMSO group, and the IC50 value was calculated.

MIA PaCa-2 cells [2] = experiment: In vitro anti-proliferative activity in combination with gemcitabine against MIA PaCa-2 cells; type: cell-based; conditions: for IC50: read-out: Anti-proliferative activity against MIA PaCa-2 cells (20 nM gemcitabine) IC50, with 20 nM gemcitabine, 72 h, intracellular ATP content
Method: as §1, with “cells/well, and 20 nM gemcitabine was added.” for “cells/well.”, “1000 nM” for “10 µM”

[3] = In vitro solubility experiment; type: physicochemical; conditions: for solubility at 0.5 h: thermodynamic from solid
Method: (§2) Preparation of a standard curve: 10.01 mg of sample was weighed out and placed in a volumetric flask, and the volume was brought to 10 mL with acetonitrile/water (v/v, 9/1) to prepare 1.001 mg/mL of standard solution; the standard solution was then serially diluted to 0.5005 mg/mL, 0.1001 mg/mL, 0.05005 mg/mL, 0.01001 mg/mL, and 0.001001 mg/mL to generate the standard curve, and a linear equation was fitted by taking the peak area of the sample as a vertical axis and the concentration as a horizontal axis. Solubility and stability test: 15 mg of sample was added to 3 mL of vehicle (FaSSIF, FeSSIF, SGF, or water) to prepare a corresponding suspension at a target concentration of 5 mg/mL. The prepared suspension was stirred on a shaker (800 rpm) at 37° C. for 0.5 h, and the suspension was then filtered. The filtrate was diluted with a diluent to a corresponding multiple so that the peak height could not exceed the standard curve, and the solubility and purity were detected using HPLC.

in vitro = conditions: dog, MDCK
Method: (§3) In vitro passive permeability or the ability to serve as a P-glycoprotein (P-gp) transport substrate was tested using MDCK cells (MDCK wild type) or MDCK cells stably transduced with MDR1 (MDCK-MDR1), respectively. The permeability experiment was performed in duplicate in a transwell system at a single concentration (5 μM). The cells were incubated for 90 min. Apical-to-basolateral (A to B, A-B) transport and basolateral-to-apical (B to A, B-A) transport of the corresponding compound were determined, and the permeation rate (apparent permeability) (Papp×10^−6 cm/sec) and efflux ratio (Papp (B-A)/Papp (A-B)) of the test compound were calculated.

[4] = In vitro stability experiment (HPLC purity of filtrate); type: physicochemical
Method: as §2

[5] = system: MDCK cells stably transduced with MDR1 (MDCK-MDR1); experiment: in vitro; conditions: for Papp Mean / Papp Sample - 01 / Papp Sample - 02: 5 μM, 90 min
Method: as §3

[6] = system: P-glycoprotein (P-gp, MDR1); experiment: in vitro; conditions: dog
Method: as §3

[7] = In vivo pharmacokinetic experiment; parameters: species or system CD-1 female mice; conditions: mice
Method: CD-1 female mice aged 7 to 10 weeks were intravenously administered and orally administered at a dose of 2 mg/kg and 10 mg/kg, respectively. The mice were fasted for at least 12 h before the administration and given food 4 h after the administration, and they were given ad libitum access to water during the experiment. On the day of the experiment, animals in the intravenous group were administered the corresponding compound by single injection via the tail vein at an administration volume of 10 mL/kg. Animals in the oral group were administered the corresponding compound by single intragastric injection at an administration volume of 10 mL/kg. The animals were weighed before administration, and the administration volume was calculated according to the body weight. The sample collection time was 0.083 h (injection group), 0.167 h, 0.5 h, 1 h, 2 h, 4 h, 8 h, and 24 h. About 200 μL of whole blood was collected through the submaxillary venous plexus at each time point and used to prepare plasma for concentration determination by high-performance liquid chromatography-tandem mass spectrometry (LC-MS/MS). All animals were euthanized with CO2 anesthesia after the PK samples were collected at the last time point. The plasma concentrations were processed using a non-compartmental model of Phoenix WinNonlin™ version 8.3 (Certara) pharmacokinetic software, and the pharmacokinetic parameters were calculated using a linear-log trapezoidal method.

[8] = In vitro solubility experiment; type: physicochemical; conditions: organic solvent or mixture, thermodynamic from solid
[9] = system: MDCK cells (MDCK wild type); experiment: In vitro permeability experiment, MDCK wild type; conditions: MDCK-Wild type, 5 μM, 90 min
Method: as §3

Recombinant MYT1 protein = molecular target: T1, Recombinant MYT1 protein (Homo sapiens, UniProt Q99640); experiment: In vitro assay for inhibiting MYT1 kinase activity (ADP-GLO); type: biochemical; conditions: 10 μM ATP, read-out: Inhibitory activity against recombinant protein MYT1 IC50
T1 sequence (Q99640 1-499): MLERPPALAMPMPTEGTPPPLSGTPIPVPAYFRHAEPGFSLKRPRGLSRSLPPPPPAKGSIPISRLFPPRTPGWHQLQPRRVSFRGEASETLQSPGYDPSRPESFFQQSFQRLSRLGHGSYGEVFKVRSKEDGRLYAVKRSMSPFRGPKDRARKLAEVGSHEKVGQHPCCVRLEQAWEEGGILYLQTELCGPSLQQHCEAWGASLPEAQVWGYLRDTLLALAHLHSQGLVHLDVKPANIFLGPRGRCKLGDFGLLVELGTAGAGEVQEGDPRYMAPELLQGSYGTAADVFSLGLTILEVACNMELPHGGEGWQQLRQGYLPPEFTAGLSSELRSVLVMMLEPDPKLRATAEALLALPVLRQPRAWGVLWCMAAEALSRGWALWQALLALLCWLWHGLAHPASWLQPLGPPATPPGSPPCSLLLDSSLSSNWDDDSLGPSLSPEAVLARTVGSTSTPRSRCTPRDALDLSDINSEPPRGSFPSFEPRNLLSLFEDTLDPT
Method: Recombinant MYT1 protein and the compounds were pre-incubated at room temperature for 15 min, and 10 μM ATP was then added to start the reaction. The mixture was incubated at room temperature for another 60 min, and the ADP-GLO reagent from Promega was then added. The resulting mixture was incubated in the dark for 40 min, a detection solution was then added, and the mixture was incubated for another 45-60 min. The chemiluminescence was determined using ENVISION. The inhibition rate and IC50 were calculated compared to the DMSO group.

[10] = simulated gastric fluid, SGF, initial pH 1.2, 37° C.
[11] = FaSSIF, initial pH 6.52, 37° C.
[12] = FeSSIF, initial pH 4.98, 37° C.
[13] = female, CD-1, mouse, plasma, iv, injection 2 mg/kg
[14] = female, CD-1, mouse, plasma, oral administration 10 mg/kg

## Cc1cc2c(C(N)=O)c(N)n(-c3c(C)c(O)cc(F)c3C)c2nc1C [Compound 3]
MIA PaCa-2 cells [1]; Homo sapiens, MIA PaCa-2, 72 h
  IC50: > 10 µM
MIA PaCa-2 cells [2]
  IC50: ≥ 1230 nM

## Cc1cc2c(C(N)=O)c(N)n(-c3c(C)c(O)cc4c3CCC4)c2nc1C (atropisomer, axis not shown) [Compound 117]
MIA PaCa-2 cells [1]; 72 h
  IC50: > 10 µM

## Cc1cc2c(C(N)=O)c(N)n(-c3c(C)c(O)cc(F)c3C)c2nc1C (single isomer, unassigned) [Compound 2]
[3]; FaSSIF, FeSSIF, SGF, water, methanol, and tetrahydrofuran, in words
  Solubility compared to RP-6306: higher solubility in various vehicles
[3]; [10]
  solubility at 0.5 h: 4860 µg/mL (≈ 14200 µM)
[3]; [11]
  solubility at 0.5 h: 61 µg/mL (≈ 178 µM)
[3]; [12]
  solubility at 0.5 h: 327 µg/mL (≈ 955 µM)
[3]; Water, initial pH 7.7, 37° C.
  solubility at 0.5 h: 270 µg/mL (≈ 789 µM)
In vitro
  efflux ratio at 90 min, 5 μM: 1.56
In vitro; Papp Mean
  Papp A→B at 90 min, 5 µM: 27.1 ×10⁻⁶ cm/s
  Papp B→A at 90 min, 5 µM: 42.2 ×10⁻⁶ cm/s
In vitro; Papp Sample - 01
  Papp A→B at 90 min, 5 µM: 27.9 ×10⁻⁶ cm/s
  Papp B→A at 90 min, 5 µM: 40 ×10⁻⁶ cm/s
In vitro; Papp Sample - 02
  Papp A→B at 90 min, 5 µM: 26.3 ×10⁻⁶ cm/s
  Papp B→A at 90 min, 5 µM: 44.5 ×10⁻⁶ cm/s
[4]; FaSSIF, FeSSIF, and water, in words
  Stability compared to RP-6306: more stable than RP-6306
[4]; [11]
  HPLC purity 0.5 h: 88.76 %, 220 nm
[4]; [12]
  HPLC purity 0.5 h: 95.98 %, 220 nm
[4]; SGF, initial pH 1.2, 37° C.
  HPLC purity 0.5 h: 98.69 %, 220 nm
[4]; Water, initial pH 7.7, 37° C.
  HPLC purity 0.5 h: 96.4 %, 220 nm
[5]; MDCK-MDR1
  Permeability compared to RP-6306: superior permeability to that of RP-6306
[6]; MDCK-MDR1
  efflux ratio at 90 min, 5 μM: 1.71
[6]; MDCK-MDR1, Papp Mean
  Papp A→B at 90 min, 5 µM: 20.5 ×10⁻⁶ cm/s
  Papp B→A at 90 min, 5 µM: 35 ×10⁻⁶ cm/s
[6]; MDCK-MDR1, Papp Sample - 01
  Papp A→B at 90 min, 5 µM: 21.1 ×10⁻⁶ cm/s
  Papp B→A at 90 min, 5 µM: 35.3 ×10⁻⁶ cm/s
[6]; MDCK-MDR1, Papp Sample - 02
  Papp A→B at 90 min, 5 µM: 19.9 ×10⁻⁶ cm/s
  Papp B→A at 90 min, 5 µM: 34.8 ×10⁻⁶ cm/s
[7]; [13]
  AUC(0-t): 338 ng·h/mL
  half-life: 199 min
[7]; female, CD-1, mouse, plasma, iv, injection 2 mg/kg, read-out: Vdss
  Vd: 6.76 L/kg
[7]; [14]
  AUC(0-t): 638 ng·h/mL
  Cmax: 603 ng/mL
  half-life: 230 min
[7]; injection 2 mg/kg
  Cl: 94.4 mL/min/kg
[7]; oral administration 10 mg/kg
  F %: 44.5%
[7]; in words
  Half-life T1/2 compared to RP-6306: longer half-life T1/2 compared to RP-6306
  Vdss compared to RP-6306: greater increase in Vdss compared to RP-6306
MIA PaCa-2 cells [1]; Homo sapiens, MIA PaCa-2, 72 h
  IC50: 4.32 µM
MIA PaCa-2 cells [2]; in words
  Anti-proliferative activity against MIA PaCa-2 cells in combination with gemcitabine: stronger anti-proliferative activity than that of RP-6306
MIA PaCa-2 cells [2]
  IC50: 18 nM
[8]; methanol
  solubility at 0.5 h: 40.6 mg/mL (≈ 118000 µM)
[8]; tetrahydrofuran
  solubility at 0.5 h: 6.11 mg/mL (≈ 17900 µM)

## COCCc1ccc(OCC(O)CNC(C)C)cc1 (stereo not shown) [Metoprolol, reference compound]
[9]; A-B
  Papp Mean: 24.34 10^−6 cm · s^−1
  Papp Sample - 01: 26.48 10^−6 cm · s^−1
  Papp Sample - 02: 22.20 10^−6 cm · s^−1
[9]; B-A
  Papp Mean: 21.29 10^−6 cm · s^−1
  Papp Sample - 01: 18.61 10^−6 cm · s^−1
  Papp Sample - 02: 23.97 10^−6 cm · s^−1
[5]; MDCK-MDR1, A-B
  Papp Mean: 36.96 10^−6 cm · s^−1
  Papp Sample - 01: 37.59 10^−6 cm · s^−1
  Papp Sample - 02: 36.32 10^−6 cm · s^−1
[5]; MDCK-MDR1, B-A
  Papp Mean: 20.14 10^−6 cm · s^−1
  Papp Sample - 01: 20.11 10^−6 cm · s^−1
  Papp Sample - 02: 20.17 10^−6 cm · s^−1

## Cc1cc2c(C(N)=O)c(N)n(-c3c(C)ccc(O)c3C)c2nc1C [RP-6306, reference compound]
[3]; [10]
  solubility at 0.5 h: 3860 µg/mL (≈ 11900 µM)
[3]; [11]
  solubility at 0.5 h: 49 µg/mL (≈ 151 µM)
[3]; [12]
  solubility at 0.5 h: 182 µg/mL (≈ 561 µM)
[3]; Water, initial pH 7.7, 37° C.
  solubility at 0.5 h: 13 µg/mL (≈ 40.1 µM)
[4]; [11]
  HPLC purity 0.5 h: 58.88 %, 220 nm
[4]; [12]
  HPLC purity 0.5 h: 74.51 %, 220 nm
[4]; SGF, initial pH 1.2, 37° C.
  HPLC purity 0.5 h: 98.18 %, 220 nm
[4]; Water, initial pH 7.7, 37° C.
  HPLC purity 0.5 h: 40.92 %, 220 nm
[7]; [14]
  half-life: 94.8 min
[7]; oral administration 10 mg/kg
  F %: 54.7%
MIA PaCa-2 cells [1]; Homo sapiens, MIA PaCa-2, 72 h
  IC50: 9.22 µM

## Cc1cc2c(C(N)=O)c(N)n(-c3c(C)ccc(O)c3C)c2nc1C#N [Compound 12]
MIA PaCa-2 cells [1]; Homo sapiens, MIA PaCa-2, 72 h
  IC50: > 10 µM

## Cc1cc2c(C(N)=O)c(N)n(-c3c(C)cc4cc[nH]c4c3C)c2nc1C [Compound 153]
MIA PaCa-2 cells [1]; Homo sapiens, MIA PaCa-2, 72 h
  IC50: > 10 µM

## Cc1cc2c(C(N)=O)c(N)n(-c3c(C)c(O)cc4ccccc34)c2nc1C [Compound 128]
Recombinant MYT1 protein
  IC50: 200 to 500 nM

## Cc1cc2c(C(N)=O)c(N)n(-c3c(C)cc4c(c3C)NCC4)c2nc1C [Compound 151]
MIA PaCa-2 cells [1]; 72 h
  IC50: > 10 µM

## Cc1cc2c(C(N)=O)c(N)n(-c3c(C)c(O)cc4c3CCCC4)c2nc1C [Compound 127]
Recombinant MYT1 protein
  IC50: 200 to 500 nM

## Cc1cc2c(C(N)=O)c(N)n(-c3c(C)cc4c(c3C)NCC4)c2nc1C [Compound 150]
MIA PaCa-2 cells [1]; Homo sapiens, MIA PaCa-2, 72 h
  IC50: > 10 µM

## Cc1cc2c(C(N)=O)c(N)n(-c3c(C)c(O)cc4c3CCC4)c2nc1C [Compound 116]
MIA PaCa-2 cells [1]; Homo sapiens, MIA PaCa-2, 72 h
  IC50: > 10 µM
